The target of this test is ERα (Homo sapiens (Human), UniProt P03372). Nature of the test: Estrogen receptor degradation activity: breast cancer cell ERα in cell western assay. As to conditions: MCF7 cells; for % Degradation At 0.3 μM: 4 hours, normalised to fulvestrant 0.1 μM and DMSO; for IC50 / DC50: 4 hours post compound addition, concentration which degrades 50% of the estrogen receptor; for DC50: read-out: Degradation IC50. Format: cell-based. The method in brief:
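MCF7 cells in phenol-red-free medium with 5% charcoal-stripped FBS, treated 4 h with 9-point 1:5 dilutions (0.3-0.0000018 μM final). ERα measured by in-cell western (anti-ER antibody, Alexa 488), normalized to Syto-64 DNA stain; % decrease scaled DMSO to 0.1 μM fulvestrant, IC50 in nM.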

ERα, sequence (P03372 whole entry): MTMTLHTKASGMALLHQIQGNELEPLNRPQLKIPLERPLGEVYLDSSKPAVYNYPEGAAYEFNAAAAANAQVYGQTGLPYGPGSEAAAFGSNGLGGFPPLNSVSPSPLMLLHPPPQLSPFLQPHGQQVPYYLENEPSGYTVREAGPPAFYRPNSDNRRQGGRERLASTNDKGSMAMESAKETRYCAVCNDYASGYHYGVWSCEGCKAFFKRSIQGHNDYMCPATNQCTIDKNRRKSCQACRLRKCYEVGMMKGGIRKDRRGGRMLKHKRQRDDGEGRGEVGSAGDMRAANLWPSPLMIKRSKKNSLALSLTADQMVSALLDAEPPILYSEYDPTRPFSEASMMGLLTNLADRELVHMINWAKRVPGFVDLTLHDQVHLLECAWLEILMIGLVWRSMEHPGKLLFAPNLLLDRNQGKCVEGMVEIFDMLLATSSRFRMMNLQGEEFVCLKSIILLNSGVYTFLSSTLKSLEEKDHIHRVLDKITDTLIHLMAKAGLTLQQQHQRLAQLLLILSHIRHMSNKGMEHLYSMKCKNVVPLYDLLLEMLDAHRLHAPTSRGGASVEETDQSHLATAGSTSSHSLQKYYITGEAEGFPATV

In the case of `COc1cccc(C2=C(c3ccc(C=C4CN(CCCF)C4)cc3)c3ccc(C(=O)O)cc3CCC2)c1C(F)(F)F` [Compound 52, 9-(4-((1-(3-fluoropropyl)azetidin-3-ylidene)methyl)phenyl)-8-(3-methoxy-2-(trifluoromethyl)phenyl)-6,7-dihydro-5H-benzo[7]annulene-3-carboxylic acid], the “% Degradation At 0.3 μM” value came to 94% and the midpoint of inhibition, the IC50, lay at 0.4 nM.
As to `O=C(O)c1ccc2c(c1)CCCC(c1ccc(Cl)cc1Cl)=C2c1ccc(C=C2CN(CC(F)CF)C2)cc1` (single isomer, unassigned) [Compound 69, 8-(2,4-dichlorophenyl)-9-(4-((1-(2,3-difluoropropyl)azetidin-3-ylidene)methyl)phenyl)-6,7-dihydro-5H-benzo[7]annulene-3-carboxylic acid], the “% Degradation At 0.3 μM” value was determined as 74% and the DC50 was 1.3 nM.
With `O=C(O)c1ccc2c(c1)CCCC(c1ccc(C(F)(F)F)cc1C1CC1)=C2c1ccc(C=C2CN(CCCF)C2)cc1` [Compound 48, 8-(2-cyclopropyl-4-(trifluoromethyl)phenyl)-9-(4-((1-(3-fluoropropyl)azetidin-3-ylidene)methyl)phenyl)-6,7-dihydro-5H-benzo[7]annulene-3-carboxylic acid], the “% Degradation At 0.3 μM” value is on record as 94% and the IC50 came out at 0.9 nM.
`COc1cc(C)cc(C)c1C1=C(c2ccc(C=C3CN(CCCF)C3)cc2)c2ccc(C(=O)O)cc2CCC1` [Compound 14, 9-(4-((1-(3-fluoropropyl)azetidin-3-ylidene)methyl)phenyl)-8-(2-methoxy-4,6-dimethylphenyl)-6,7-dihydro-5H-benzo[7]annulene-3-carboxylic acid]: the “% Degradation At 0.3 μM” value is 91% and the IC50 is 0.6 nM.
On the same counts, the results for `Cc1ccc(F)c(C)c1C1=C(c2ccc(C=C3CN(CCCF)C3)cc2)c2ccc(C(=O)O)cc2CCC1` [Compound 75, 8-(3-fluoro-2,6-dimethylphenyl)-9-(4-((1-(3-fluoropropyl)azetidin-3-ylidene)methyl)phenyl)-6,7-dihydro-5H-benzo[7]annulene-3-carboxylic acid] are 95% and 0.2 nM.
On the same counts, the results for `COc1cc(C(F)F)ccc1C1=C(c2ccc(C=C3CN(CCCF)C3)cc2)c2ccc(C(=O)O)cc2CCC1` [Compound 29, 8-(4-(difluoromethyl)-2-methoxyphenyl)-9-(4-((1-(3-fluoropropyl)azetidin-3-ylidene)methyl)phenyl)-6,7-dihydro-5H-benzo[7]annulene-3-carboxylic acid] are 93% and 0.6 nM.
On the same counts, the results for `COc1c(F)cccc1C1=C(c2ccc(C=C3CN(CCCF)C3)cc2)c2ccc(C(=O)O)cc2CCC1` [Compound 40, 8-(3-fluoro-2-methoxyphenyl)-9-(4-((1-(3-fluoropropyl)azetidin-3-ylidene)methyl)phenyl)-6,7-dihydro-5H-benzo[7]annulene-3-carboxylic acid] are 91% and 0.5 nM.
Take `O=C(O)c1ccc2c(c1)CCCC(c1cccc3c1OCCC3)=C2c1ccc(C=C2CN(CCCF)C2)cc1` [Compound 67, 8-(chroman-8-yl)-9-(4-((1-(3-fluoropropyl)azetidin-3-ylidene)methyl)phenyl)-6,7-dihydro-5H-benzo[7]annulene-3-carboxylic acid]: the “% Degradation At 0.3 μM” value is given as 90% and the IC50 was 1 nM.
For `COc1ccc(C(F)(F)F)c(C2=C(c3ccc(C=C4CN(CCCF)C4)cc3)c3ccc(C(=O)O)cc3CCC2)c1` [Compound 47, 9-(4-((1-(3-fluoropropyl)azetidin-3-ylidene)methyl)phenyl)-8-(5-methoxy-2-(trifluoromethyl)phenyl)-6,7-dihydro-5H-benzo[7]annulene-3-carboxylic acid], the “% Degradation At 0.3 μM” value turned out to be 93% and the IC50 came to 0.5 nM.
With `Cc1c(C2=C(c3ccc(C=C4CN(CCCF)C4)cc3)c3ccc(C(=O)O)cc3CCC2)ccc(C(F)(F)F)c1F` [Compound 73, 8-(3-fluoro-2-methyl-4-(trifluoromethyl)phenyl)-9-(4-((1-(3-fluoropropyl)azetidin-3-ylidene)methyl)phenyl)-6,7-dihydro-5H-benzo[7]annulene-3-carboxylic acid], the “% Degradation At 0.3 μM” value is 85% and the DC50 was found to be 0.3 nM.
For `Cc1cc(C(F)F)ccc1C1=C(c2ccc(C=C3CN(CCCF)C3)cc2)c2ccc(C(=O)O)cc2CCC1` [Compound 44, 8-(4-(difluoromethyl)-2-methylphenyl)-9-(4-((1-(3-fluoropropyl)azetidin-3-ylidene)methyl)phenyl)-6,7-dihydro-5H-benzo[7]annulene-3-carboxylic acid], the “% Degradation At 0.3 μM” value is recorded as 93% and the IC50 stood at 0.5 nM.
With `Cc1cccc(Cl)c1C1=C(c2ccc(C=C3CN(CCCF)C3)cc2)c2ccc(C(=O)O)cc2CCC1` [Compound 21, 8-(2-chloro-6-methylphenyl)-9-(4-((1-(3-fluoropropyl)azetidin-3-ylidene)methyl)phenyl)-6,7-dihydro-5H-benzo[7]annulene-3-carboxylic acid], the “% Degradation At 0.3 μM” value is on record as 93% and the IC50 amounted to 0.5 nM.
On the same counts, the results for `O=C(O)c1ccc2c(c1)CCCC(c1c(F)cccc1OC(F)(F)F)=C2c1ccc(C=C2CN(CCCF)C2)cc1` [Compound 9, 8-(2-fluoro-6-(trifluoromethoxy)phenyl)-9-(4-((1-(3-fluoropropyl)azetidin-3-ylidene)methyl)phenyl)-6,7-dihydro-5H-benzo[7]annulene-3-carboxylic acid] are 96% and 0.6 nM.
With `COc1cc(C(F)(F)F)cc(C(F)(F)F)c1C1=C(c2ccc(C=C3CN(CCCF)C3)cc2)c2ccc(C(=O)O)cc2CCC1` [Compound 71, 9-(4-((1-(3-fluoropropyl)azetidin-3-ylidene)methyl)phenyl)-8-(2-methoxy-4,6-bis(trifluoromethyl)phenyl)-6,7-dihydro-5H-benzo[7]annulene-3-carboxylic acid], the “% Degradation At 0.3 μM” value is 95% and inhibition was half-maximal at 0.5 nM (IC50).
On the same counts, the results for `CCc1ccc(C2=C(c3ccc(C=C4CN(CCCF)C4)cc3)c3ccc(C(=O)O)cc3CCC2)c(C(F)(F)F)c1` [Compound 19, 8-(4-ethyl-2-(trifluoromethyl)phenyl)-9-(4-((1-(3-fluoropropyl)azetidin-3-ylidene)methyl)phenyl)-6,7-dihydro-5H-benzo[7]annulene-3-carboxylic acid] are 92% and 0.2 nM.
On the same counts, the results for `CCc1cc(C(F)(F)F)ccc1C1=C(c2ccc(C=C3CN(CCCF)C3)cc2)c2ccc(C(=O)O)cc2CCC1` [Compound 25, 8-(2-ethyl-4-(trifluoromethyl)phenyl)-9-(4-((1-(3-fluoropropyl)azetidin-3-ylidene)methyl)phenyl)-6,7-dihydro-5H-benzo[7]annulene-3-carboxylic acid] are 91% and 0.4 nM.
On the same counts, the results for `COc1cccc(C(F)(F)F)c1C1=C(c2ccc(C=C3CN(CCCF)C3)cc2)c2ccc(C(=O)O)cc2CCC1` [Compound 6, 9-(4-((1-(3-fluoropropyl)azetidin-3-ylidene)methyl)phenyl)-8-(2-methoxy-6-(trifluoromethyl)phenyl)-6,7-dihydro-5H-benzo[7]annulene-3-carboxylic acid] are 91% and 0.3 nM.
For the molecule `O=C(O)c1ccc2c(c1)CCCC(c1cccc3c1CCCO3)=C2c1ccc(C=C2CN(CCCF)C2)cc1` [Compound 64, 8-(chroman-5-yl)-9-(4-((1-(3-fluoropropyl)azetidin-3-ylidene)methyl)phenyl)-6,7-dihydro-5H-benzo[7]annulene-3-carboxylic acid], the “% Degradation At 0.3 μM” value amounted to 96% and the IC50 stood at 3.1 nM.

A word on the IC50: it is the concentration needed to halve the response being measured. A low value points to greater potency in that assay.

(Values after US20250255848A1, “SUBSTITUTED 6,7-DIHYDRO-5H-BENZO[7]ANNULENE DERIVATIVES, PROCESSES FOR THEIR PREPARATION AND THERAPEUTIC USES THEREOF” (SANOFI, priority 2022, published 2025).)
